Legend:
[1] = target: T1, MAP kinase-activated protein kinase 5 (Homo sapiens) (UniProt Q8IW41); test: Selectivity interaction (Millipore kinase profiler) EUB0000124b MAPKAPK5; settings: at 10 µM
T1 sequence (whole entry): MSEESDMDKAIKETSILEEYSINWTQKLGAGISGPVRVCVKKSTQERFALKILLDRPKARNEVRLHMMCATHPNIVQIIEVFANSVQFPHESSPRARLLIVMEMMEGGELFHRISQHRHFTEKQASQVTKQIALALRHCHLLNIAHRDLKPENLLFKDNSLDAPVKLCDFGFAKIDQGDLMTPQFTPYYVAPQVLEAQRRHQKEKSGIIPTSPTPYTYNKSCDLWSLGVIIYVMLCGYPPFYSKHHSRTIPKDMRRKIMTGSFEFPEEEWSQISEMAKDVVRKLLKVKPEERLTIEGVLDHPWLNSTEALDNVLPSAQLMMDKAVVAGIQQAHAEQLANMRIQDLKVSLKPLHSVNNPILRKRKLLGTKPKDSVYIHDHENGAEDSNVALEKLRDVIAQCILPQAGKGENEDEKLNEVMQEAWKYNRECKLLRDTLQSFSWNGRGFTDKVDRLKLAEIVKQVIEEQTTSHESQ

[2] = target: Serine/threonine-protein kinase WNK3 (Homo sapiens) (UniProt Q9BYP7); test: Selectivity interaction (KinomeScan (DiscoverX)) EUB0001049a WNK3; settings: at 1 µM
[3] = target: Ribosomal protein S6 kinase alpha-1 (Homo sapiens, UniProt Q15418); test: Selectivity interaction (Ambit KINOMEscan and KiNATiv profiling in Jurkat cells) EUB0000090b RPS6KA1; format: cell-based; settings: at 1 µM
[4] = target: T2, Tyrosine-protein kinase Tec (Homo sapiens) (UniProt P42680); test: Selectivity interaction (ActivX KiNativ screen (kinase selectivity in THP-1 cell lysates)) EUB0000639a TEC; format: subcellular; settings: lysate, at 0.01 µM
T2 sequence (whole entry): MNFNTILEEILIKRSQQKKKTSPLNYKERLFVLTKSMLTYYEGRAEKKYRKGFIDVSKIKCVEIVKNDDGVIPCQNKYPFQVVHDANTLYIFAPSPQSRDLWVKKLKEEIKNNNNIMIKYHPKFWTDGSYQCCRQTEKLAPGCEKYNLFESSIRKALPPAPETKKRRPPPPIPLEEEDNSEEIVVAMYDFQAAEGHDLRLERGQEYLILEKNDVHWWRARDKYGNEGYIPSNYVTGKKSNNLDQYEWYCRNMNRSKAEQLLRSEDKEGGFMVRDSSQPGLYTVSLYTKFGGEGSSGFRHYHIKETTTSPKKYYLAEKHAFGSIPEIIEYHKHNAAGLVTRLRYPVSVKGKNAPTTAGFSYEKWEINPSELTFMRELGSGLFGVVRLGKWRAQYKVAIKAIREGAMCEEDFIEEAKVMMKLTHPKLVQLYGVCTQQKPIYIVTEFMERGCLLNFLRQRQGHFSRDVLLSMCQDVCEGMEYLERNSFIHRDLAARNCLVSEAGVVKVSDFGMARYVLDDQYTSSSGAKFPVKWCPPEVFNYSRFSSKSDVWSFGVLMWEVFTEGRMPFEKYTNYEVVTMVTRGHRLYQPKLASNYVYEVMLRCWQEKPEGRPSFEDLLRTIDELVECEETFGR

[5] = target: T3, Histone-lysine N-methyltransferase EHMT2 (Homo sapiens) (UniProt Q96KQ7); settings: at 10 µM
T3 sequence (whole entry): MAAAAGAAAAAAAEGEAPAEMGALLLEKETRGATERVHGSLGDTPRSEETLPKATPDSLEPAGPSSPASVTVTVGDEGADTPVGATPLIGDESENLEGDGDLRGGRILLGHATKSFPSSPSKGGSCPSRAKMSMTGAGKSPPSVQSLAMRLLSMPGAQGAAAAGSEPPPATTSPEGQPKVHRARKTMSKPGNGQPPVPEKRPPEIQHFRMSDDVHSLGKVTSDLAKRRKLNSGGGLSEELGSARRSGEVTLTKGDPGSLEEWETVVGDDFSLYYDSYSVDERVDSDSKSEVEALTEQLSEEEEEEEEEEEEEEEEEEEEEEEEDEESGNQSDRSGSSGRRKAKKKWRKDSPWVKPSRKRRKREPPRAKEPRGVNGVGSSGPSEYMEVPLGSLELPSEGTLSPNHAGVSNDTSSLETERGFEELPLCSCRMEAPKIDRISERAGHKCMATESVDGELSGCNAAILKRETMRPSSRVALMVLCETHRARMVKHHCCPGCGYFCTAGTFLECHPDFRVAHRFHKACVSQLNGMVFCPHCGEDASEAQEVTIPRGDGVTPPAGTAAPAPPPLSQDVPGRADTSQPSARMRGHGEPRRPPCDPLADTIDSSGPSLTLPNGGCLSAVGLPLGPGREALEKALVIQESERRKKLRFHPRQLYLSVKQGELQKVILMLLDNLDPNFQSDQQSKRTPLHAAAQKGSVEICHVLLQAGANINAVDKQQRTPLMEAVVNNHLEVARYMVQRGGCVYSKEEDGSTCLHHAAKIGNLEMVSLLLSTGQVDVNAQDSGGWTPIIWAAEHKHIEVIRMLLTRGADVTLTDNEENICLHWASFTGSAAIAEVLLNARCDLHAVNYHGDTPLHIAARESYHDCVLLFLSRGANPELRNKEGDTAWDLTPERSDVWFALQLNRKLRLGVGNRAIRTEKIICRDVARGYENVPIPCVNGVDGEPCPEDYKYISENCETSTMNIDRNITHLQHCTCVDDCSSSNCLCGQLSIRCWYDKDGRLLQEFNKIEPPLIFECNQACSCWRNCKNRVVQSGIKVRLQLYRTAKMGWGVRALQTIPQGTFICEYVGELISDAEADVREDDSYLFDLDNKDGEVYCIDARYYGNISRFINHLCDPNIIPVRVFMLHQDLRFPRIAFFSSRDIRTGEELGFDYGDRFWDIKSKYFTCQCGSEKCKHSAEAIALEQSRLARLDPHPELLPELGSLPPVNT

[6] = target: Tyrosine-protein kinase JAK2 (Homo sapiens, UniProt O60674); test: Selectivity interaction (Kinase panel (Z-LYTE Assay)) EUB0001632a JAK2; settings: at 10 µM
[7] = target: Ribosomal protein S6 kinase alpha-2 (Homo sapiens) (UniProt Q15349); test: Selectivity interaction (Kinome Scan (DiscoverX)) EUB0000229b RPS6KA2; settings: at 10 µM
[8] = Selectivity interaction (KinomeScan (DiscoverX)) EUB0001079a PKNB; settings: at 1 µM
[9] = target: Serine/threonine-protein kinase PRP4 homolog (Homo sapiens) (UniProt Q13523); test: Selectivity interaction (KinomeScan (DiscoverX)) EUB0000655a PRPF4; settings: at 10 µM
[10] = target: RAC-gamma serine/threonine-protein kinase (Homo sapiens, UniProt Q9Y243); test: Selectivity interaction (Kinase panel (DSF assay)) EUB0001559a AKT3
[11] = target: Ephrin type-A receptor 5 (Homo sapiens) (UniProt P54756); test: Selectivity interaction (Kinase panel (DSF assay)) EUB0001558a EPHA5

Sequence of Tyrosine-protein kinase JAK2 (O60674 whole entry): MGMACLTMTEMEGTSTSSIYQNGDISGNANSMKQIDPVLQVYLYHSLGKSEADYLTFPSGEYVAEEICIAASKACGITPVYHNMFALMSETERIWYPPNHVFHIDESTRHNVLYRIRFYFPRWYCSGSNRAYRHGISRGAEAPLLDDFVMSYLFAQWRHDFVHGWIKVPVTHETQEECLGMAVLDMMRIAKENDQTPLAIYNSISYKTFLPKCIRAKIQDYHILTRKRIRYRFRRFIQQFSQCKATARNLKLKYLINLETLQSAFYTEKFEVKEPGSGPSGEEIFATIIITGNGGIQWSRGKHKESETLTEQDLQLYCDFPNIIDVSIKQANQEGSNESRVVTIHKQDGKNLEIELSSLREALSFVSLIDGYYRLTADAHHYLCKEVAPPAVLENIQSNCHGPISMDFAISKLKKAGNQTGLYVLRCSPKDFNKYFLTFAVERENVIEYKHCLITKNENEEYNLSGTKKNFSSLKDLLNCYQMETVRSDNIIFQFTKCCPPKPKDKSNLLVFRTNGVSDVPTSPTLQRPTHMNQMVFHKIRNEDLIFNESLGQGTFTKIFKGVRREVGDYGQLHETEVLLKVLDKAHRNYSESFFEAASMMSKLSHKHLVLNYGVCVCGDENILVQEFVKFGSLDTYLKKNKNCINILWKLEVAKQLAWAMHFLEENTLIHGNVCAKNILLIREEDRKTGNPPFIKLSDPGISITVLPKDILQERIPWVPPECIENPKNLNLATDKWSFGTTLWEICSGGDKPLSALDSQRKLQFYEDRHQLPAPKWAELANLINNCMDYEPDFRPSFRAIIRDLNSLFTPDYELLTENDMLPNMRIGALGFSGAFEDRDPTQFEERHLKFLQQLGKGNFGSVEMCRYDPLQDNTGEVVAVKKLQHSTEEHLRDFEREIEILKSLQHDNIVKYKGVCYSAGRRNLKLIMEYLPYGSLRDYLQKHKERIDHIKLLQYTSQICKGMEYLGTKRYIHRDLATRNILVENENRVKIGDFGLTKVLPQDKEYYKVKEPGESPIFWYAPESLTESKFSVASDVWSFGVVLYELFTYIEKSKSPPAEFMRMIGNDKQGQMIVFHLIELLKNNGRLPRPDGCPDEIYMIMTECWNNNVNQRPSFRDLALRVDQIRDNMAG
Sequence of Ribosomal protein S6 kinase alpha-1 (Q15418 whole entry): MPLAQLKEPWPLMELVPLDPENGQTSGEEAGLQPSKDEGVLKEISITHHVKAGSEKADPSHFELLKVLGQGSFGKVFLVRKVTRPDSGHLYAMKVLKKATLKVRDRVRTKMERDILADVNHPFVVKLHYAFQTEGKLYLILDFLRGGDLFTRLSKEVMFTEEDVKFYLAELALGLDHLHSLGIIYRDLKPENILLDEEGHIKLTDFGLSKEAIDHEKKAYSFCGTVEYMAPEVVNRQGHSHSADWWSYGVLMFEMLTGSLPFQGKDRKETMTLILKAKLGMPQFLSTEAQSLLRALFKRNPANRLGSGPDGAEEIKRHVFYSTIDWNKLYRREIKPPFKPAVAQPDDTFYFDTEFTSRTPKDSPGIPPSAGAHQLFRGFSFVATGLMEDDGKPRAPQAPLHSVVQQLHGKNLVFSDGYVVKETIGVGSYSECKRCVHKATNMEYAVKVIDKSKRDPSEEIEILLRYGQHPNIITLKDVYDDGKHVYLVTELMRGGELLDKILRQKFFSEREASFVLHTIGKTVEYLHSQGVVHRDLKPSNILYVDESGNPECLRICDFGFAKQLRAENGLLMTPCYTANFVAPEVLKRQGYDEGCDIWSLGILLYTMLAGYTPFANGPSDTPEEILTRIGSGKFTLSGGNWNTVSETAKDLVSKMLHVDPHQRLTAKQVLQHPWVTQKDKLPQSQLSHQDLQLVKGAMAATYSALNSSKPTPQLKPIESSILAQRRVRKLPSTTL
Sequence of Ribosomal protein S6 kinase alpha-2 (Homo sapiens) (Q15349 whole entry): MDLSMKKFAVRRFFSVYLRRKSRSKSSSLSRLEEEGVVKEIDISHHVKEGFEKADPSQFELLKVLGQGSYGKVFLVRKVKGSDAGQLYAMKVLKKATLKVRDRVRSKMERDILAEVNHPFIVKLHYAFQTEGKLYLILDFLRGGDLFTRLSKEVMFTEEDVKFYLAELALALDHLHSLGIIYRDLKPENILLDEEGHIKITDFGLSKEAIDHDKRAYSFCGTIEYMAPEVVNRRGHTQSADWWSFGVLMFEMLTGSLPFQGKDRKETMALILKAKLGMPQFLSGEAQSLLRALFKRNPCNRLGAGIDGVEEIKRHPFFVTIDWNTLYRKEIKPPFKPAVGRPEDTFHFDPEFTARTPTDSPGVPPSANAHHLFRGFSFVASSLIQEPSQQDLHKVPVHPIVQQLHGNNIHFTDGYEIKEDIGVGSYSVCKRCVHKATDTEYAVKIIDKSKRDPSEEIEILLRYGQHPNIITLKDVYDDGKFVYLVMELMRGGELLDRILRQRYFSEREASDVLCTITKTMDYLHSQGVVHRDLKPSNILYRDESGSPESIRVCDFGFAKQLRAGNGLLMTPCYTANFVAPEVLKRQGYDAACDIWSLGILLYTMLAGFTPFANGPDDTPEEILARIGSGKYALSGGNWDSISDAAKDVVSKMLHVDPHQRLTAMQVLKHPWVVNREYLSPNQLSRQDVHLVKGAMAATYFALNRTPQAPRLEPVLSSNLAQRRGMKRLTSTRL
Sequence of Serine/threonine-protein kinase WNK3 (Homo sapiens) (Q9BYP7 whole entry): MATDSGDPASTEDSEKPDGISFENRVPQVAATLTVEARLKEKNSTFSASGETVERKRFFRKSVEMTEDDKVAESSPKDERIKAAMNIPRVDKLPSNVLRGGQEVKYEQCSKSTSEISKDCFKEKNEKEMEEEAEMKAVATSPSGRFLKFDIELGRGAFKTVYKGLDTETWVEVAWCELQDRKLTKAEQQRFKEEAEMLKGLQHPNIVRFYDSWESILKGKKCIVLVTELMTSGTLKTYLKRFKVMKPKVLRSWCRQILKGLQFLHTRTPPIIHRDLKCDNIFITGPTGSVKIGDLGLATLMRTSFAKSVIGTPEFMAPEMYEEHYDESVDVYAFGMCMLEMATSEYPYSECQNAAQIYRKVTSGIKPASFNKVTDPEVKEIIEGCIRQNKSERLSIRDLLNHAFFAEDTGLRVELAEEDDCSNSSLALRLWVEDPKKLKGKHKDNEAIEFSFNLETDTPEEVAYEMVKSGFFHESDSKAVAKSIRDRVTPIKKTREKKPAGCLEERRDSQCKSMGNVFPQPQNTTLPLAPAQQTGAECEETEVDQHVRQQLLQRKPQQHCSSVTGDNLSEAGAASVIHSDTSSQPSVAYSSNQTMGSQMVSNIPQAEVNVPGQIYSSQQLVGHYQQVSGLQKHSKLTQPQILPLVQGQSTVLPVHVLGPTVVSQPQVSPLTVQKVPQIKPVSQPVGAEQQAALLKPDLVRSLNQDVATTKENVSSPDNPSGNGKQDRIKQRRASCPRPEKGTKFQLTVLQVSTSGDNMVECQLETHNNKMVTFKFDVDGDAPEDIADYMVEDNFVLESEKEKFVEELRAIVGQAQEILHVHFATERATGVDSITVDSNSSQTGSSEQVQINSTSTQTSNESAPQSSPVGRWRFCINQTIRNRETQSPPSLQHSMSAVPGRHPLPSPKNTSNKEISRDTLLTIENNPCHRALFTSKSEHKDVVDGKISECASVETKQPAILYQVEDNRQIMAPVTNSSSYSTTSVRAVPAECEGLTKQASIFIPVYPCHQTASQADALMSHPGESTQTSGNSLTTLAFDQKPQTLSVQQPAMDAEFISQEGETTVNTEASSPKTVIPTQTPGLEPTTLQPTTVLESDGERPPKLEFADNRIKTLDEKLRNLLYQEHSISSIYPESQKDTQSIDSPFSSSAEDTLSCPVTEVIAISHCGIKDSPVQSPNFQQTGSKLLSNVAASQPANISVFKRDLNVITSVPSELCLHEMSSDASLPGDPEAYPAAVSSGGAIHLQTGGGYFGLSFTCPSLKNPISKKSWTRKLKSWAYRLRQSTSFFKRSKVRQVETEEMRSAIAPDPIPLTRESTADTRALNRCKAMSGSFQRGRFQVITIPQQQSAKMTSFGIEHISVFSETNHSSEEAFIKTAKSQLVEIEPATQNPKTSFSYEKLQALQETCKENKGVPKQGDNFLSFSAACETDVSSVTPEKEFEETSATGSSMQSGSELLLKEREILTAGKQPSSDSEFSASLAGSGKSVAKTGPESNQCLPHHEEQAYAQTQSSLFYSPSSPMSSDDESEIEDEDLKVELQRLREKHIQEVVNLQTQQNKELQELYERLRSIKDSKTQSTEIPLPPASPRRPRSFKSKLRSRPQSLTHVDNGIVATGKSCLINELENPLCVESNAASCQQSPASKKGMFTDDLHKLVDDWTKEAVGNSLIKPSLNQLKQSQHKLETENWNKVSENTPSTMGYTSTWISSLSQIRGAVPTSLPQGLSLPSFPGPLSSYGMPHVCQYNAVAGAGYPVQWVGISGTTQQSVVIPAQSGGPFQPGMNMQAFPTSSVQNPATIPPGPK
Sequence of RAC-gamma serine/threonine-protein kinase (Q9Y243 whole entry): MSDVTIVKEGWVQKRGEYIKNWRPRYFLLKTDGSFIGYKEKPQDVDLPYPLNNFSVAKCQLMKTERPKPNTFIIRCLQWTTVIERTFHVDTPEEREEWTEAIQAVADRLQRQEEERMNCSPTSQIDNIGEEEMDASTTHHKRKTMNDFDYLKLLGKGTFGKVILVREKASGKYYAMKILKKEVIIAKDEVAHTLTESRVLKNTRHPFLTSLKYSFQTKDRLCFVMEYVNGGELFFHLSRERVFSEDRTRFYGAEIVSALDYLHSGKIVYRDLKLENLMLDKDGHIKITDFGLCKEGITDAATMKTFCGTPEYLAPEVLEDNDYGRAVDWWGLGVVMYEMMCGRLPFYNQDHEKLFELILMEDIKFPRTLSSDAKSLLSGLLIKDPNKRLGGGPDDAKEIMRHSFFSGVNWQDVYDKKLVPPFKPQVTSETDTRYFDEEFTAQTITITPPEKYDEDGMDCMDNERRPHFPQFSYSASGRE

With `CC(=O)Nc1cccc(-n2c(=O)n(C3CC3)c(=O)c3c(Nc4ccc(I)cc4F)n(C)c(=O)c(C)c32)c1` as the compound, how does the % of control [1] read?
Its % of control is 91%.

With `COc1cc(Nc2nc(C)cc(-c3cnn4nc(OC)ccc34)n2)cc(C(F)(F)F)c1` as the compound, how does the % of control [2] read?
The % of control was 81%.

With `CN(C)C/C=C/C(=O)Nc1ccc(C(=O)N2CCCC(Nc3ncc(Cl)c(-c4c[nH]c5ccccc45)n3)C2)cc1` (stereo unspecified) as the compound, how does the % of control [3] read?
Its % of control is 14%.

Which % of inhibition [4] does the source give for `CC[C@@H]1[C@H](F)C(=O)N[C@@H]1COc1nccc2cc(C(N)=O)c(OC)cc12` [ZIMLOVISERTIB] here?
The % of inhibition was -72.2%.

Which % activity [5] does the source give for `CNCCN1CCC(c2cc(CN(C)C(=O)c3cccc(Oc4ccccc4)c3)ccn2)CC1` here?
The % activity was > 90%.

Which % of control [6] does the source give for `Cn1cc(-n2cnc3c(NCc4nc5cc(Cl)c(Cl)cc5[nH]4)nc(N4CCOCC4)nc32)cn1` here?
Its % of control is 3.68%.

With `COc1cc(N(C)c2ccnc3ccc(C(F)(F)F)cc23)cc(OC)c1OC` as the compound, how does the % binding [7] read?
The % binding was 74%.

For `Nc1cnc(N2CCc3cc(S(=O)(=O)Nc4c(F)cc(Cl)cc4F)cc(N4CCCC4=O)c32)nc1` [TP-020n], which % of control [8] is on record?
Its % of control is 96%.

With `CN(C)CCOc1ccc(-c2nc(-c3ccncc3)c(-c3ccc4c(c3)CC/C4=N\O)[nH]2)cc1` as the compound, how does the % of control [9] read?
Its % of control is 84%.

Which dTM [10] does the source give for `CN(C(=O)c1cnn2cccnc12)c1cc2c(cc1N1CCOCC1)C(=O)N(C[C@@H](F)C(C)(C)O)C2` here?
Its dTM is 0 K.

For `CC(C)(O)[C@H](F)CN1Cc2cc(NC(=O)c3cnn4cccnc34)c(N3CCOCC3)cc2C1=O`, which dTM [11] is on record?
The dTM was 2.4 K.

— ChEMBL document CHEMBL5465560, “Selectivity Literature for EUbOPEN Chemogenomic Library” (2024)
